In patent publication US6022497A, “Photochromic six-membered heterocyclic-fused naphthopyrans” (PPG Industries Ohio, Inc., priority 1999, dated 2000):

Legend:
Type in all cases: physicochemical
[1] = lambda max (Vis) of compound in solution, UV/Visible spectrophotometer; settings: solution in diethylene glycol dimethyl ether, approximately 0.5 milligram per milliliter
Experimental: The compound of Example 13 identified as 13A and the compound of Example 14 were dissolved in diethylene glycol dimethyl ether. The concentration of the resulting solution was approximately 0.5 milligram per milliliter. Each solution was tested in a UV/Visible Spectrophotometer to determine the lambda max (Vis).

[2] = lambda max (Vis) of photochromic test square polymerizates, UV-Visible spectrophotometer; settings: activated (colored) form in polymer test square (BPA 2EO DMA / poly(ethylene glycol) 600 dimethacrylate), 1.5×10^-3 molal
Experimental: (§1) Testing was done with the photochromic compounds prepared in Examples 1-14 in the following manner. A quantity of each photochromic compound, except Compounds 13A and 14, calculated to yield a 1.5×10^-3 molal solution was added to a flask containing 50 grams of a monomer blend of 4 parts ethoxylated bisphenol A dimethacrylate (BPA 2EO DMA), 1 part poly(ethylene glycol) 600 dimethacrylate, and 0.033 weight percent 2,2'-azobis(2-methyl propionitrile) (AIBN). Each photochromic compound was dissolved into the monomer blend by stirring and gentle heating. After a clear solution was obtained, it was poured into a flat sheet mold having the interior dimensions of 2.2 mm×6 inches (15.24 cm)×6 inches (15.24 cm). The mold was sealed and placed in a horizontal air flow, programmable oven programmed to increase the temperature from 40° C. to 95° C. over a 5 hour interval, hold the temperature at 95° C. for 3 hours, lower it to 60° C. over a 2 hour interval and then hold at 60° C. for 16 hours. After the mold was opened, the polymer sheet was cut using a diamond blade saw into 2 inch (5.1 centimeters) test squares.
The ΔOD/min, which represents the sensitivity of the photochromic compound's response to UV light, was measured over the first five (5) seconds of UV exposure, then expressed on a per minute basis. The saturation optical density (ΔOD@ Saturation) was taken under identical conditions as the ΔOD/min, except UV exposure was continued for 15 minutes. The lambda max (Vis) is the wavelength in nanometers (nm) in the visible spectrum at which the maximum absorption of the activated (colored) form of the photochromic compound in a test square occurs. The lambda max (Vis) wavelength was determined by testing the photochromic test square polymerizates of Part A in a Varian Cary 3 UV-Visible spectrophotometer. The Bleach Rate (T 1/2) is the time interval in seconds for the absorbance of the activated form of the photochromic compound in the test squares to reach one half the highest absorbance at room temperature (72° F., 22.2° C.) after removal of the source of activating light.

[3] = photochromic response of test squares on an optical bench (sensitivity, saturation, bleach rate); settings: for ΔOD @ Saturation: UV exposure continued for 15 minutes; for ΔOD @ Saturation / Sensitivity ΔOD/min: 72° F. (22.2° C.); for Sensitivity ΔOD/min: first five (5) seconds of UV exposure, expressed per minute; for Bleach Rate T 1/2: time to one half the highest absorbance at room temperature (72° F., 22.2° C.) after removal of activating light
Experimental: as §1
The photochromic test squares prepared in Part A were tested for photochromic response on an optical bench. Prior to testing on the optical bench, the photochromic test squares were exposed to 365 nanometer ultraviolet light for about 15 minutes to activate the photochromic compounds and then placed in a 76° C. oven for about 15 minutes to bleach or inactivate the photochromic compounds. The test squares were then cooled to room temperature, exposed to fluorescent room lighting for at least 2 hours and then kept covered for at least 2 hours prior to testing on an optical bench maintained at 72° F. (22.2° C.). The bench was fitted with a 150 watt Xenon arc lamp, a remote controlled shutter, a copper sulfate bath acting as a heat sink for the arc lamp, a Schott WG-320 nm cut-off filter which removes short wavelength radiation; neutral density filter(s) and a sample holder in which the square to be tested was inserted. The power output of the optical bench, i.e., the dosage of light that the sample lens would be exposed to, was calibrated with a photochromic test square used as a reference standard. […] The UV-A detector was placed into the sample holder and the light output was measured. Adjustments to the power output were made by increasing or decreasing the lamp wattage or by adding or removing neutral density filters in the light path.
A monitoring, collimated beam of light from a tungsten lamp was passed through the square at a small angle (approximately 30°) normal to the square. After passing through the square, the light from the tungsten lamp was directed to a detector through Spectral Energy Corp. GM-200 monochromator set at the previously determined visible lambda max of the photochromic compound being measured. The output signals from the detector were processed by a radiometer.
Change in optical density (ΔOD) was determined by inserting a test square in the bleached state into the sample holder, adjusting the transmittance scale to 100%, opening the shutter from the Xenon lamp to provide ultraviolet radiation to change the test square from the bleached state to an activated (i.e., darkened) state, measuring the transmittance in the activated state, and calculating the change in optical density according to the formula: ΔOD=log(100/% Ta), where % Ta is the percent transmittance in the activated state and the logarithm is to the base 10.
The ΔOD/min, which represents the sensitivity of the photochromic compound's response to UV light, was measured over the first five (5) seconds of UV exposure, then expressed on a per minute basis. The saturation optical density (ΔOD@ Saturation) was taken under identical conditions as the ΔOD/min, except UV exposure was continued for 15 minutes. […]

SMILES | lambda max (Vis) [1] [nanometers] | lambda max (Vis) [2] [nanometers] | ΔOD @ Saturation [3] | Sensitivity ΔOD/min [3] | Bleach Rate T 1/2 [3] [min]
O=C1OC(c2ccccc2)(c2ccccc2)Nc2c1c1c(c3ccccc23)OC(c2ccccc2)(c2ccccc2)C=C1 [Example 13A, 2,2,7,7-tetraphenyl-4-oxo-2,3,4,7-tetrahydro-1H-[1,3]oxazino[5',4':3,4]naphtho[1,2-b]pyran] | 471 |  |  |  | 
CCCCCC1OC(=O)c2c3c(c4ccccc4c2O1)OC(c1ccccc1)(c1ccccc1)C=C3 (centres unmarked) [Example 5, 7,7-diphenyl-2-pentyl-4-oxo-4H-7H-[1,3]dioxino[5',4':3,4]naphtho[1,2-b]pyran] |  | 478 | 1.74 | 0.67 ΔOD/min | 4.23
CC(c1ccccc1)C1OC(=O)c2c3c(c4ccccc4c2O1)OC(c1ccccc1)(c1ccccc1)C=C3 (centres unmarked) [Example 8, 7,7-diphenyl-2-(1-phenylethyl)-4-oxo-4H-7H-[1,3]dioxino[5',4':3,4]naphtho[1,2-b]pyran] |  | 475 | 1.58 | 0.63 ΔOD/min | 4.18
CC1(C)Cc2c(c3c(c4ccccc24)OC(c2ccccc2)(c2ccccc2)C=C3)C(=O)O1 [Example 14] | 460 |  |  |  | 
COc1ccc(C2(c3ccc(OC)cc3)C=Cc3c4c(c5ccccc5c3O2)OCOC4=O)cc1 [Example 2, 7,7-di(4-methoxyphenyl)-4-oxo-4H-7H-[1,3]dioxino[5',4':3,4]naphtho[1,2-b]pyran] |  | 510 | 0.67 | 0.74 ΔOD/min | 0.85
CC(C)CC1OC(=O)c2c3c(c4ccccc4c2O1)OC(c1ccccc1)(c1ccccc1)C=C3 (centres unmarked) [Example 6, 7,7-diphenyl-2-(2-methylpropyl)-4-oxo-4H-7H-[1,3]dioxino[5',4':3,4]naphtho[1,2-b]pyran] |  | 475 | 1.72 | 0.64 ΔOD/min | 4
CCOC(=O)CCn1c(=O)oc2c(c3c(c4ccccc42)OC(c2ccccc2)(c2ccccc2)C=C3)c1=O [Example 10, 3-(2-ethoxycarbonylethyl)-7,7-diphenyl-2,4-dioxo-2,3,4,7-tetrahydro[1,3]oxazino[5',6':3,4]naphtho[1,2-b]pyran] |  | 468 | 0.38 | 0.44 ΔOD/min | 0.7
O=C1OC(c2ccccc2)Oc2c1c1c(c3ccccc23)OC(c2ccccc2)(c2ccccc2)C=C1 (centres unmarked) [Example 7, 2,7,7-triphenyl-4-oxo-4H-7H-[1,3]dioxino[5',4':3,4]naphtho[1,2-b]pyran] |  | 476 | 1.46 | 0.60 ΔOD/min | 4.13
Cn1c(=O)oc2c(c3c(c4ccccc42)OC(c2ccccc2)(c2ccccc2)C=C3)c1=O [Example 9, 3-methyl-7,7-diphenyl-2,4-dioxo-2,3,4,7-tetrahydro[1,3]oxazino[5',6':3,4]naphtho[1,2-b]pyran] |  | 469 | 0.40 | 0.41 ΔOD/min | 0.85
CCCCCC1OC(=O)c2c3c(c4ccccc4c2O1)OC(c1ccccc1)(c1ccc(OC)cc1)C=C3 (centres unmarked) [Example 3, 7-(4-methoxyphenyl)-7-phenyl-2-pentyl-4-oxo-4H-7H-[1,3]dioxino[5',4':3,4]naphtho[1,2-b]pyran] |  | 496 | 1.28 | 0.75 ΔOD/min | 1.95
C=C(C)C(=O)OCCn1c(=O)oc2c(c3c(c4ccccc42)OC(c2ccccc2)(c2ccccc2)C=C3)c1=O [Example 12, 3-(2-methacryloyloxyethyl)-7,7-diphenyl-2,4-dioxo-2,3,4,7-tetrahydro[1,3]oxazino[5',6':3,4]naphtho[1,2-b]pyran] |  | 467 | 0.32 | 0.26 ΔOD/min | 2.33
CCC1OC(=O)c2c3c(c4ccccc4c2O1)OC(c1ccccc1)(c1ccccc1)C=C3 (centres unmarked) [Example 4, 7,7-diphenyl-2-ethyl-4-oxo-4H-7H-[1,3]dioxino[5',4':3,4]naphtho[1,2-b]pyran] |  | 474 | 1.71 | 0.67 ΔOD/min | 4.13
CCCCCCn1c(=O)oc2c(c3c(c4ccccc42)OC(c2ccccc2)(c2ccccc2)C=C3)c1=O [Example 11, 3-hexyl-7,7-diphenyl-2,4-dioxo-2,3,4,7-tetrahydro[1,3]oxazino[5',6':3,4]naphtho[1,2-b]pyran] |  | 471 | 0.41 | 0.46 ΔOD/min | 0.883
O=C1OCOc2c1c1c(c3ccccc23)OC(c2ccccc2)(c2ccccc2)C=C1 [Example 1, 7,7-diphenyl-4-oxo-4H-7H-[1,3]dioxino[5'4':3,4]naphtho[1,2-b]pyran] |  | 472 | 1.89 | 0.76 ΔOD/min | 3.67
